{"source": "PubChem BioAssay AID248", "about": "(DTP/NCI, 2004)", "system": "L1210 leukemia ip in BDF1 mice, survival T/C", "experiment": "NCI In Vivo Anticancer Drug Screen. Data for tumor model L1210 Leukemia (intraperitoneal) in B6D2F1 (BDF1) mice", "settings": "endpoint: mean survival time, higher = longer survival", "how_it_was_run": "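Ratio derived from survival: compound-dosed mice over vehicle-dosed mice, all bearing a transplantable tumor.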", "key": {"[1]": {"settings": "dose: 100.0 mg/kg/injection, schedule: Q01DX009 (ip), vehicle: saline with Tween-80"}, "[2]": {"settings": "dose: 200.0 mg/kg/injection, schedule: Q01DX009 (ip), vehicle: saline with Tween-80"}, "[3]": {"settings": "dose: 100.0 mg/kg/injection, schedule: Q01DX009 (ip), vehicle: Klucel (hydroxypropylcellulose) (HPC)"}, "[4]": {"settings": "dose: 200.0 mg/kg/injection, schedule: Q01DX009 (ip), vehicle: Klucel (hydroxypropylcellulose) (HPC)"}, "[5]": {"settings": "dose: 400.0 mg/kg/injection, schedule: Q01DX009 (ip), vehicle: Klucel (hydroxypropylcellulose) (HPC)"}}, "note": "Inconclusive results and toxic doses are left out.", "data": [{"smiles": "CCCCCCCCCCCCCCCOc1ccc2ccccc2c1", "values": [{"measurement": "T/C", "setting": "dose: 100.0 mg/kg/injection, schedule: Q01DX001 (ip), vehicle: Klucel (hydroxypropylcellulose) (HPC)", "result": "326 % of control"}, {"measurement": "T/C", "setting": "dose: 200.0 mg/kg/injection, schedule: Q01DX001 (ip), vehicle: Klucel (hydroxypropylcellulose) (HPC)", "result": "326 % of control"}, {"measurement": "T/C", "setting": "dose: 400.0 mg/kg/injection, schedule: Q01DX001 (ip), vehicle: Klucel (hydroxypropylcellulose) (HPC)", "result": "326 % of control"}]}, {"smiles": "O=c1cc(I)[nH]c(=O)[nH]1", "values": [{"measurement": "T/C", "setting": "dose: 73.0 mg/kg/injection, schedule: Q01DX Z (ip), vehicle: methylcellulose (MC)", "result": "100 % of control"}, {"measurement": "T/C", "setting": "dose: 111.0 mg/kg/injection, schedule: Q01DX Z (ip), vehicle: methylcellulose (MC)", "result": "96 % of control"}, {"measurement": "T/C", "setting": "dose: 165.0 mg/kg/injection, schedule: Q01DX Z (ip), vehicle: methylcellulose (MC)", "result": "102 % of control"}, {"measurement": "T/C", "setting": "dose: 248.0 mg/kg/injection, schedule: Q01DX Z (ip), vehicle: methylcellulose (MC)", "result": "110 % of control"}]}, {"smiles": "Cc1ccc(Cl)cc1NS(=O)(=O)c1ccc(Br)cc1", "values": [{"measurement": "T/C", "setting": "[1]", "result": "95 % of control"}, {"measurement": "T/C", "setting": "dose: 100.0 mg/kg/injection, schedule: Q04DX003 (ip), vehicle: saline with Tween-80", "result": "88 % of control"}, {"measurement": "T/C", "setting": "[2]", "result": "90 % of control"}, {"measurement": "T/C", "setting": "dose: 200.0 mg/kg/injection, schedule: Q04DX003 (ip), vehicle: saline with Tween-80", "result": "94 % of control"}, {"measurement": "T/C", "setting": "dose: 400.0 mg/kg/injection, schedule: Q01DX009 (ip), vehicle: saline with Tween-80", "result": "90 % of control"}, {"measurement": "T/C", "setting": "dose: 400.0 mg/kg/injection, schedule: Q04DX003 (ip), vehicle: saline with Tween-80", "result": "94 % of control"}]}, {"smiles": "Cc1ccc([N+](=O)[O-])cc1NC(=O)Nc1cccc(C(F)(F)F)c1", "values": [{"measurement": "T/C", "setting": "dose: 25.0 mg/kg/injection, schedule: Q01DX009 (ip), vehicle: Klucel (hydroxypropylcellulose) (HPC)", "result": "102 % of control"}, {"measurement": "T/C", "setting": "dose: 50.0 mg/kg/injection, schedule: Q01DX009 (ip), vehicle: Klucel (hydroxypropylcellulose) (HPC)", "result": "92 % of control"}, {"measurement": "T/C", "setting": "[3]", "result": "86 % of control"}, {"measurement": "T/C", "setting": "[4]", "result": "87 % of control"}, {"measurement": "T/C", "setting": "[5]", "result": "87 % of control"}]}, {"smiles": "COc1ccc(/C=N/NC(=O)c2ccc(Cl)cc2)cc1", "values": [{"measurement": "T/C", "setting": "dose: 50.0 mg/kg/injection, schedule: Q01DX009 (ip), vehicle: saline with Tween-80", "result": "88 % of control"}, {"measurement": "T/C", "setting": "[1]", "result": "105 % of control"}, {"measurement": "T/C", "setting": "[2]", "result": "91 % of control"}]}, {"smiles": "CCCCNCCC[P+](c1ccccc1)(c1ccccc1)c1ccccc1", "values": [{"measurement": "T/C", "setting": "dose: 25.0 mg/kg/injection, schedule: Q04DX002 (ip), vehicle: saline", "result": "115 % of control"}, {"measurement": "T/C", "setting": "dose: 50.0 mg/kg/injection, schedule: Q04DX002 (ip), vehicle: saline", "result": "98 % of control"}, {"measurement": "T/C", "setting": "dose: 100.0 mg/kg/injection, schedule: Q04DX002 (ip), vehicle: saline", "result": "105 % of control"}]}, {"smiles": "O=C(C[n+]1ccccc1-c1ccccn1)c1ccccc1", "values": [{"measurement": "T/C", "setting": "dose: 5.0 mg/kg/injection, schedule: Q01DX001 (ip), vehicle: saline", "result": "103 % of control"}, {"measurement": "T/C", "setting": "dose: 10.0 mg/kg/injection, schedule: Q01DX001 (ip), vehicle: saline", "result": "103 % of control"}, {"measurement": "T/C", "setting": "dose: 20.0 mg/kg/injection, schedule: Q01DX001 (ip), vehicle: saline", "result": "105 % of control"}, {"measurement": "T/C", "setting": "dose: 40.0 mg/kg/injection, schedule: Q01DX001 (ip), vehicle: saline", "result": "113 % of control"}]}, {"smiles": "COc1ccc(CSc2ncnc3nc[nH]c23)cc1", "values": [{"measurement": "T/C", "setting": "dose: 6.0 mg/kg/injection, schedule: Q01DX015 (ip), vehicle: carboxymethylcellulose (CMC)", "result": "92 % of control"}, {"measurement": "T/C", "setting": "dose: 12.0 mg/kg/injection, schedule: Q01DX015 (ip), vehicle: carboxymethylcellulose (CMC)", "result": "91 % of control"}, {"measurement": "T/C", "setting": "dose: 25.0 mg/kg/injection, schedule: Q01DX015 (ip), vehicle: carboxymethylcellulose (CMC)", "result": "101 % of control"}, {"measurement": "T/C", "setting": "dose: 50.0 mg/kg/injection, schedule: Q01DX015 (ip), vehicle: carboxymethylcellulose (CMC)", "result": "101 % of control"}, {"measurement": "T/C", "setting": "dose: 200.0 mg/kg/injection, schedule: Q01DX015 (ip), vehicle: carboxymethylcellulose (CMC)", "result": "111 % of control"}]}, {"smiles": "O=C(Nc1ccccc1)Oc1ccc(OCc2ccccc2)cc1", "values": [{"measurement": "T/C", "setting": "dose: 12.5 mg/kg/injection, schedule: Q04DX003 (ip), vehicle: saline with Tween-80", "result": "95 % of control"}, {"measurement": "T/C", "setting": "dose: 25.0 mg/kg/injection, schedule: Q04DX003 (ip), vehicle: saline with Tween-80", "result": "93 % of control"}, {"measurement": "T/C", "setting": "dose: 50.0 mg/kg/injection, schedule: Q04DX003 (ip), vehicle: saline with Tween-80", "result": "93 % of control"}]}, {"smiles": "CC1=C(C(=O)O)CCCO1", "values": [{"measurement": "T/C", "setting": "dose: 100.0 mg/kg/injection, schedule: Q01DX001 (ip), vehicle: saline", "result": "98 % of control"}, {"measurement": "T/C", "setting": "dose: 200.0 mg/kg/injection, schedule: Q01DX001 (ip), vehicle: saline", "result": "98 % of control"}, {"measurement": "T/C", "setting": "dose: 400.0 mg/kg/injection, schedule: Q01DX001 (ip), vehicle: saline", "result": "98 % of control"}]}, {"smiles": "CN(C)c1ccc(C=Nc2ccc(Cc3ccncc3)cc2)cc1", "values": [{"measurement": "T/C", "setting": "[3]", "result": "99 % of control"}, {"measurement": "T/C", "setting": "[4]", "result": "98 % of control"}, {"measurement": "T/C", "setting": "[5]", "result": "100 % of control"}]}]}
